Earlier results on 2 compounds are cited in patent US5605915A, “Acetylenes disubstituted with a 5 substituted tetrahydronaphthyl group and with an aryl or heteroaryl group having retinoid-like biological activity” (Allergan, priority 1996, dated 1997).

Molecules are shown by their SMILES.

The series deals with ornithine decarboxylase (ODC). The conditions noted are these: literature statement.

Turning to `CCCCCCCCCCCCCC(=O)O[C@@H]1[C@@H](C)[C@@]2(O)[C@@H](C=C(CO)C[C@]3(O)C(=O)C(C)=C[C@@H]23)[C@@H]2C(C)(C)[C@]12OC(C)=O` [12-0-tetradecanoylphorbol-13-acetate], the “effect on ODC activity” value is “induces ODC activity”.

For the compound `CC1=C(/C=C/C(C)=C/C=C/C(C)=C/C(=O)O)C(C)(C)CCC1` [Retinoic acid], the “effect on ODC activity” value was “inhibits this induction of ODC activity by TPA”.
